We go through 31 compounds from patent US8361998B2, “Compounds and their use as IKACh blockers” (AstraZeneca AB, priority 2010, dated 2013).

Counter-ions that a name gives are not always drawn. Like-named read-outs stand apart in the source and are kept apart here.

This assay concerns the target T1, human cardiac ion channel proteins hKir3.1/Kir3.4 (Homo sapiens, UniProt P48544+P48549).
T1 construct: expressed in transfected cells
T1 sequence (P48549 1-501): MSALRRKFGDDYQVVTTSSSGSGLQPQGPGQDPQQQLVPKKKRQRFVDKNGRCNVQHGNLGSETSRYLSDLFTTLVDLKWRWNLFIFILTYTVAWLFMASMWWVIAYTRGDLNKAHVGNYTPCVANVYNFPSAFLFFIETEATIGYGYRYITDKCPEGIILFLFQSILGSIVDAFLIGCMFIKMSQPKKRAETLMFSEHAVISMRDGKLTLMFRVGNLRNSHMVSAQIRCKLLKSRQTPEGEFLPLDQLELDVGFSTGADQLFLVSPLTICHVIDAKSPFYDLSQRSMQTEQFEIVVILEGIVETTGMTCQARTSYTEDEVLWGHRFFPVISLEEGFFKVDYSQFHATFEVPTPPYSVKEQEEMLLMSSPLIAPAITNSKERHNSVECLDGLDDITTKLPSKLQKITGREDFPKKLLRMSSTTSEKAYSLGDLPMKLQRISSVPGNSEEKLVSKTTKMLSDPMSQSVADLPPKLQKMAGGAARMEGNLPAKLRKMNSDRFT
T1 sequence (P48544 1-419): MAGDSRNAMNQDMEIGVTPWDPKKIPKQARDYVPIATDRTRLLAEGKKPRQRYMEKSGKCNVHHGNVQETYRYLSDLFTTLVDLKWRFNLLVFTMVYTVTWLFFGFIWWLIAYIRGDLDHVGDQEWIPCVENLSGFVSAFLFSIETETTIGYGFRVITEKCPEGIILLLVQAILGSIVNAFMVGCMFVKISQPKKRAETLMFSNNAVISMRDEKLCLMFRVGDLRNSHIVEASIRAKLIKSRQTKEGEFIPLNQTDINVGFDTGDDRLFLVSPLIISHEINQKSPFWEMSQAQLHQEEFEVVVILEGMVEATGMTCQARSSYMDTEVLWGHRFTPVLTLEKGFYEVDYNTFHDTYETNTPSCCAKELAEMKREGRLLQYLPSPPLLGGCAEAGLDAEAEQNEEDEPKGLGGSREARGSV
Kind of assay: Atomic Absorption Screening (AAS) Rb efflux assay of hKir3.1/Kir3.4 block, carbachol/high K+ stimulated, 10-pt or 7-pt CR. The assay is classed as cell-based. The conditions noted are these: AAS Rb efflux, CHO-K1 cells expressing hKir3.1/Kir3.4. In short, it runs like this: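 CHO-K1 cells stably co-expressing human Kir3.1/Kir3.4 were Rb-loaded for 3 h at 37° C, preincubated with compound 5 min at RT, then stimulated 10 min with 10 μM carbachol plus 20 mM KCl (final). Supernatant Rb was measured by atomic absorption. Compounds ran at 0.003–67 μmol/L (10-pt) or 0.037–27 μmol/L (7-pt), threefold dilutions; IC50s are means of >4 or >3 replicates respectively.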

Setting [1] is: 10-pt CR (0.003 to 67 μmol/L), mean of >4 replicates, read-out: IKACh IC50 10-pt CR, AAS.
Setting [2] is: 7-pt CR (0.037 to 27 μmol/L), mean of >3 replicates, read-out: IKACh IC50 7-pt CR, AAS.

Consider `CCC[C@@H](CN1CCC1)N(C)C(=O)c1ccc(Cl)cc1` [Example 1.2, (S)-N-(1-(Azetidin-1-yl)pentan-2-yl)-4-chloro-N-methylbenzamide], for which, under setting [1], the IC50 came out at 3600 nM.

`CCC[C@@H](CN1CCC1)N(C)C(=O)c1ccc(F)c(C)c1` [Example 1.4, (S)-N-(1-(Azetidin-1-yl)pentan-2-yl)-4-fluoro-N,3-dimethyl-benzamide]: the half-inhibitory concentration (IC50) under setting [1] is 3700 nM.

As for `CC(C)[C@@H](CN1CCCC1)N(C)C(=O)c1ccc(F)cc1Cl` [Example 1.17, (S)-2-Chloro-4-fluoro-N-methyl-N-(3-methyl-1-(pyrrolidin-1-yl)butan-2-yl)benzamide], the IC50 runs as follows: under setting [2], 2800 nM; under setting [1], 4200 nM.

As to `Cc1cc(C(=O)N(C)[C@H](CN2CCC2)C2CC2)ccc1F` [Example 4.1, (S)—N-(2-(Azetidin-1-yl)-1-cyclopropylethyl)-4-fluoro-N,3-dimethylbenzamide], the half-maximal inhibitory concentration (IC50) under setting [1] was determined as 5900 nM.

In the case of `CN(C(=O)c1ccc(Br)cc1)[C@H](CN1CC(O)C1)C1CC1` [Example 4.4, (S)-4-Bromo-N-(1-cyclopropyl-2-(3-hydroxyazetidin-1-yl)ethyl)-N-methylbenzamide], the 50% inhibitory concentration (IC50) under setting [1] is 590 nM.

In the case of `CC(C)[C@@H](CN1CCC1)N(C)C(=O)c1ccc(Cl)cc1` [Example 5.1, (S)-N-(1-(Azetidin-1-yl)-3-methylbutan-2-yl)-4-chloro-N-methylbenzamide], under setting [1], the IC50 was determined as 6000 nM.

Take `CC(C)[C@@H](CN1CCC1)N(C)C(=O)c1ccc(Br)cc1.O=C(O)CCC(=O)O` [Example 5.2]: under setting [1], the IC50 turned out to be 1800 nM.

As for `Cc1cc(C(=O)N(C)[C@H](CN2CC(O)C2)C(C)C)ccc1F` [Example 6.1, (S)-4-Fluoro-N-(1-(3-hydroxyazetidin-1-yl)-3-methylbutan-2-yl)-N,3-dimethylbenzamide], the IC50 under setting [1] came out at 1500 nM.

With `CC(C)[C@@H](CN1CC(O)C1)N(C)C(=O)c1ccc(Cl)cc1` [Example 6.2, (S)-4-Chloro-N-(1-(3-hydroxyazetidin-1-yl)-3-methylbutan-2-yl)-N-methylbenzamide], under setting [1], the IC50 worked out at 2600 nM.

In the case of `Cc1cc(C(=O)N(C)[C@H](CN2CC(O)C2)C2CC2)ccc1F` [Example 7.1, (S)—N-(1-Cyclopropyl-2-(3-hydroxyazetidin-1-yl)ethyl)-4-fluoro-N,3-dimethylbenzamide], the IC50 under setting [1] came out at 1300 nM.

For the compound `CN(C(=O)c1ccc(Cl)cc1)[C@H](CN1CC(O)C1)C1CC1` [Example 7.2, (S)-4-Chloro-N-(1-cyclopropyl-2-(3-hydroxyazetidin-1-yl)ethyl)-N-methylbenzamide], the IC50 under setting [1] is 1800 nM.

In the case of `CN(C(=O)c1ccc(F)c(Cl)c1)[C@H](CN1CC(O)C1)C1CC1` [Example 7.3, (S)-3-Chloro-N-(1-cyclopropyl-2-(3-hydroxyazetidin-1-yl)ethyl)-4-fluoro-N-methylbenzamide], the IC50 under setting [1] was 1900 nM.

In the case of `CCC[C@@H](CN1CC(O)C1)N(C)C(=O)c1ccc(F)c(F)c1` [Example 8.1, (S)-3,4-Difluoro-N-(1-(3-hydroxyazetidin-1-yl)pentan-2-yl)-N-methylbenzamide], the half-maximal inhibitory concentration (IC50) under setting [1] was 1700 nM.

`CCC[C@@H](CN1CC(O)C1)N(C)C(=O)c1ccc(Cl)cc1` [Example 8.2, (S)-4-Chloro-N-(1-(3-hydroxyazetidin-1-yl)pentan-2-yl)-N-methyl-benzamide, hydrochloride]: under setting [1], the IC50 was 880 nM.

On to `CCC[C@@H](CN1CC(O)C1)N(C)C(=O)c1ccc(F)cc1` [Example 8.6, (S)-4-Fluoro-N-(1-(3-hydroxyazetidin-1-yl)pentan-2-yl)-N-methylbenzamide], for which the IC50 under setting [1] amounted to 8500 nM.

Turning to `CC(C)[C@@H](CN1CC[C@H](O)C1)N(C)C(=O)c1ccc(Cl)cc1` [Example 10.2, 4-Chloro-N-((S)-1-((S)-3-hydroxypyrrolidin-1-yl)-3-methylbutan-2-yl)-N-methylbenzamide hemi tartrate], the IC50 worked out at 2000 nM under setting [2] and 5100 nM under setting [1].

Regarding `Cc1cc(C(=O)N(C)[C@H](CN2CCCC2)C(C)C)ccc1F` [Example 12.1, (S)-4-Fluoro-N,3-dimethyl-N-(3-methyl-1-(pyrrolidin-1-yl)butan-2-yl)benzamide-dihydroxysuccinate], the IC50 came to 1400 nM under setting [2] and 15000 nM under setting [1].

`Cc1cccc(C(=O)N(C)[C@H](CN2CCCC2)C(C)C)c1` [Example 12.2, (S)-1-(2-(N,3-Dimethylbenzamido)-3-methylbutyl)pyrrolidinium 2,3-dihydroxysuccinate]: the IC50 is, setting by setting: under setting [2], 5800 nM; under setting [1], 16000 nM.

With `CC(C)[C@@H](CN1CCCC1)N(C)C(=O)c1ccc(F)c(Cl)c1` [Example 16.55, (S)-3-Chloro-4-fluoro-N-methyl-N-(3-methyl-1-(pyrrolidin-1-yl)butan-2-yl)benzamide], the half-inhibitory concentration (IC50) is, setting by setting: under setting [2], 1400 nM; under setting [1], 1900 nM.

As for `CC(C)[C@@H](CN1CCCC1)N(C)C(=O)c1ccc(Cl)cc1` [Example 18, (S)-1-(2-(4-Chloro-N-methylbenzamido)-3-methylbutyl)pyrrolidinium chloride], the IC50 came out at 1200 nM under setting [2] and 6800 nM under setting [1].

Consider `CC(C)[C@@H](CN1CCCC1)N(C)C(=O)c1ccc(Br)cc1` [Example 19, (S)-1-(2-(4-bromo-N-methylbenzamido)-3-methylbutyl)pyrrolidinium 3-carboxy-2,3-dihydroxypropanoate], for which the IC50 was 820 nM under setting [2] and 4600 nM under setting [1].

Regarding `CC[C@H](C)[C@@H](CN1CC(O)C1)N(C)C(=O)c1ccc(C#N)cc1F` [Example 29.7, 4-Cyano-2-fluoro-N-((2S,3S)-1-(3-hydroxyazetidin-1-yl)-3-methylpentan-2-yl)-N-methylbenzamide], under setting [1], the IC50 worked out at 3500 nM.

Take `CCCC[C@@H](CN1CC(O)C1)N(C)C(=O)c1ccc(C#N)cc1` [Example 33.4, 4-Cyano-N-[(2S)-1-(3-hydroxyazetidin-1-yl)hexan-2-yl]-N-methylbenzamide]: the IC50 under setting [1] was 1100 nM.

As for `CCCC[C@@H](CN1CC(O)C1)N(C)C(=O)c1ccc(F)cc1` [Example 33.7, 4-Fluoro-N-[(2S)-1-(3-hydroxyazetidin-1-yl)hexan-2-yl]-N-methylbenzamide], the half-inhibitory concentration (IC50) under setting [1] stood at 550 nM.

For the compound `CC(C)C[C@@H](CN1CC(O)C1)N(C)C(=O)c1ccc(F)c(F)c1` [Example 38.1, 3,4-Difluoro-N-[(2S)-1-(3-hydroxyazetidin-1-yl)-4-methylpentan-2-yl]-N-methylbenzamide], the IC50 under setting [1] was 1300 nM.

Regarding `CC(C)C[C@@H](CN1CC(O)C1)N(C)C(=O)c1ccc(Cl)cc1` [Example 38.2, 4-Chloro-N-[(2S)-1-(3-hydroxyazetidin-1-yl)-4-methylpentan-2-yl]-N-methylbenzamide], the IC50 under setting [1] worked out at 110 nM.

For `CC(C)C[C@@H](CN1CC(O)C1)N(C)C(=O)c1ccc(C#N)cc1F` [Example 38.6, 4-Cyano-2-fluoro-N-[(2S)-1-(3-hydroxyazetidin-1-yl)-4-methylpentan-2-yl]-N-methylbenzamide], the IC50 under setting [1] turned out to be 3400 nM.

As for `CN(C(=O)c1ccc(C#N)cc1)[C@H](CN1CC(O)C1)C1CCC1` [Example 39.2, (S)-4-Cyano-N-(1-cyclobutyl-2-(3-hydroxyazetidin-1-yl)ethyl)-N-methylbenzamide], the IC50 under setting [1] came to 490 nM.

On to `CC[C@@H](CN1CC(O)C1)N(C)C(=O)c1ccc(Cl)cc1` [Example 39.12, (S)-4-Chloro-N-(1-(3-hydroxyazetidin-1-yl)butan-2-yl)-N-methylbenzamide], for which the IC50 under setting [1] was 3900 nM.

With `CN(C(=O)c1ccc(Cl)cc1)[C@H](CN1CC(O)C1)C1CCC1` [Example 39.14, (S)-4-Chloro-N-(1-cyclobutyl-2-(3-hydroxyazetidin-1-yl)ethyl)-N-methylbenzamide], the IC50 under setting [1] came to 72 nM.

Consider `Cc1cc(C(=O)N(C)[C@H](CN2CC(O)C2)C2CCC2)ccc1F` [Example 39.16, (S)—N-(1-Cyclobutyl-2-(3-hydroxyazetidin-1-yl)ethyl)-4-fluoro-N,3-dimethylbenzamide], for which the IC50 under setting [1] is 78 nM.

The term IC50 denotes the concentration needed to halve the response being measured.
